Measured values: ChEMBL document CHEMBL4414671, “Antinociceptive Grayanane Diterpenoids from the Leaves of Pieris japonica” (2019)

test system: Mus musculus; assay: Antinociceptive activity in mouse as reduction in acetic acid-induced writhes at 0.04 mg/kg,ip relative to control; format: functional

Point of comparison: `CO[C@H]1[C@H](O)C(C)(C)[C@@]2(O)[C@H](O)C[C@]34C[C@@](C)(O)[C@H](CC[C@H]3[C@@](C)(O)[C@H]12)[C@H]4O`, inhibition in vivo at 0.04 mg/kg 59.1%. Against it:
- CC1=C[C@@]23C[C@@H](O)[C@@]4(O)[C@@H]([C@@H](O)[C@H](O)C4(C)C)[C@](C)(O)[C@@H]2CC[C@@H]1[C@H]3O — higher, 61.9%
- CC1(C)[C@@H](O)[C@H](O)[C@H]2[C@](C)(O)[C@@H]3CC[C@@H]4[C@@H](O)[C@@]3(C[C@@H](O)[C@@]21O)C[C@@]4(C)O — higher, 88.7%
- C=C1[C@@H]2CC[C@@H]3C[C@]2(C=C3CO)C[C@@H](O)[C@@]2(O)[C@H]1C[C@H](O)C2(C)C — lower, 56.3%

test system: Mus musculus; assay: Antinociceptive activity in mouse as reduction in acetic acid-induced writhes at 0.2 mg/kg, ip relative to control; format: functional

`C=C1[C@@H]2CC[C@@H]3C[C@@]2(C[C@@H](O)[C@@]2(O)[C@H]1CC(=O)C2(C)C)C[C@@]3(C)O` showed an inhibition in vivo at 0.2 mg/kg of 59.1%.

test system: Mus musculus; assay: Antinociceptive activity in mouse as reduction in acetic acid-induced writhes at 0.2 to 1 mg/kg, ip relative to control; format: functional

For `CC1=C2CC[C@@H]3[C@@H](O)[C@@]2(C[C@@H](O)[C@@]2(O)[C@H]1[C@@H](O)[C@H](O)C2(C)C)C[C@@]3(C)O`, the “inhibition (INH)” value was greater than 50%.

test system: Mus musculus; assay: Antinociceptive activity in mouse as reduction in acetic acid-induced writhes at 5 mg/kg, ip relative to control; format: functional

Point of comparison: `C=C1[C@@H]2CC[C@@H]3C[C@@]2(C[C@@H](O)[C@@]2(O)[C@H]1CC(=O)C2(C)C)C[C@@]3(C)O`, inhibition in vivo at 5 mg/kg 87.3%. Against it:
- C=C1[C@@H]2[C@@H](OC)[C@H](O)C(C)(C)[C@@]2(O)[C@H](O)C[C@]23C=C(C)[C@H](CC[C@@H]12)[C@H]3O — not separable, > 50%
- C=C1[C@@H]2CC[C@@H]3C[C@@]2(C[C@@H](O)[C@@]2(O)[C@@H]1[C@H](O)[C@H](O)C2(C)C)C[C@@]3(C)O — not separable, > 50%
- C=C1[C@@H]2CC[C@@H]3[C@@H](O)[C@@]2(C[C@@H](O)[C@@]2(O)[C@H]1C[C@H](O)C2(C)C)C[C@@]3(C)O — not separable, > 50%
- C=C1[C@@H]2C[C@@H](O)[C@@H]3C[C@@]2(C[C@@H](O)[C@@]2(O)[C@H]1C[C@H](O)C2(C)C)C[C@@]3(C)O — not separable, > 50%
- C=C1[C@@H]2CC[C@@H]3C[C@@]2(C[C@@H](O)[C@@]2(O)[C@H]1C[C@H](O)C2(C)C)C[C@@]3(C)O — not separable, > 50%
- CC1=C2C[C@H](O)C(C)(C)[C@]23O[C@]12CC[C@@H]1C[C@@]2(C[C@H]3O)C[C@@]1(C)O — not separable, > 50%
- C=C1[C@@H]2CC[C@H]3C(C)=C[C@]2(C[C@@H](O)[C@@]2(O)[C@H]1C[C@H](O)C2(C)C)[C@@H]3O — not separable, > 50%
- C=C1[C@@H]2[C@@H](OC)[C@H](O)C(C)(C)[C@@]2(O)[C@H](O)C[C@]23C[C@@](C)(O)[C@H](CC[C@@H]12)[C@H]3O — not separable, > 50%
- C=C1[C@@H]2[C@H](O)[C@H](O)C(C)(C)[C@@]2(O)[C@H](O)C[C@]23C[C@@](C)(O)[C@H](CC[C@@H]12)[C@H]3O — not separable, > 50%
- C=C1[C@@H]2[C@@H](OC)[C@H](O)C(C)(C)[C@@]2(O)[C@H](O)C[C@]23C[C@@](C)(O)[C@H](CC[C@@H]12)[C@H]3OC(=O)C(C)O (stereo partly specified) — not separable, > 50%
- C=C1[C@@H]2[C@@H](O)[C@H](O)C(C)(C)[C@@]2(O)[C@H](O)C[C@]23C=C(C)[C@H](CC[C@@H]12)[C@H]3O — not separable, > 50%
- CC1(C)[C@@H](O)C[C@@H]2[C@@](C)(O)[C@@H]3CC[C@]4(O)C[C@@]3(C[C@@H](O)[C@@]21O)C[C@@]4(C)O — not separable, > 50%
- C=C1[C@@H]2[C@@H](O)[C@H](O)C(C)(C)[C@@]2(O)[C@H](O)C[C@]23C[C@@](C)(O)[C@H](CC[C@@H]12)[C@H]3OC(=O)CC — not separable, > 50%
- CC1=C2CC[C@@H]3C[C@@]2(C[C@@H](O)[C@@]2(O)[C@H]1C[C@H](O)C2(C)C)C[C@@]3(C)O — not separable, > 50%
- C=C1[C@@H]2CC[C@@H]3C[C@@]2(C[C@@H](O)[C@@]2(O)[C@H]1C[C@H](O)C2(C)C)C[C@@]3(C)OC — not separable, > 50%
- C=C1[C@H]2C[C@H](O)C(C)(C)[C@]2(O)CC[C@@]23C[C@@H](CC[C@@H]12)[C@@](O)(CO)C3 — not separable, > 50%
- C=C1[C@@H]2CC[C@@H]3[C@@H](OC(=O)CC)[C@@]2(C[C@@H](O)[C@@]2(O)[C@H]1C[C@H](O)C2(C)C)C[C@@]3(C)O — not separable, > 50%
- C=C1C2=C([C@H](O)C[C@@]34C[C@@H](CC[C@@H]13)[C@](C)(O)C4)C(C)(C)[C@@H](O)[C@H]2O — not separable, > 50%

test system: Mus musculus; assay: Antinociceptive activity in mouse as reduction in acetic acid-induced writhes at 1 mg/kg, ip relative to control; format: functional

Molecule `C=C1[C@@H]2CC[C@@H]3C[C@@]2(C[C@@H](O)[C@@]2(O)[C@H]1CC(=O)C2(C)C)C[C@@]3(C)O` has an inhibition in vivo at 1 mg/kg of 76.3%.
